According to patent publication US9618524B2, “Method, composition, isolation and identification of a plaque particle and related biomarker” (Plaxgen Inc., priority 2012, dated 2017):

Key:
Experiment in all cases: Mass spectroscopy proteomics, semi-quantitative binding affinity of serum proteins (plaqueproteome, Table 2)
Conditions in all cases: higher number = stronger affinity
[1] = biological target: T1, Abeta-42 plaque particles (Homo sapiens, UniProt P05067)
T1 construct: Abeta 1-42
Method in brief: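 AD patient serum or plasma (50% in PBS) was incubated with Abeta-42 aggregates (30 μg) for 1 h at 37 °C, then stained with Thioflavin S for 30 min. Labeled particles were FACS-sorted, trypsin/Lys-C digested overnight and analyzed by MS/MS. Sequest searched human UniProt; Scaffold/Protein Prophet validated the identifications.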

[2] = system: High Density cholesterol (Chl Large) plaque particles; design: species or system human
Method in brief: (§1)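 Serum or plasma from atherosclerotic subjects, diluted to 50% in PBS, was incubated with cholesterol aggregates (30 μg per 1 mL reaction) at 37° C for 1 hr. Small and large cholesterol plaque particles were sorted by flow cytometry gating, trypsin-digested and analysed by MS/MS against a human UniProt database.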

[3] = system: Low density cholesterol (Chl small) plaque particles; design: species or system human
Method in brief: as §1

[4] = biological target: T2, alpha-synuclein plaque particles (Homo sapiens, UniProt P37840)
T2 construct: 140 amino acids polypeptide
Method in brief: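 AD-subject plasma or serum (800 μL of 50%) mixed with 30 μg preformed alpha-synuclein aggregates for 1 h at 37 °C; Thioflavin S-positive particles isolated by flow sorting. After reduction, acrylamide alkylation and overnight tryptic digestion, serum proteins identified by MS/MS with Sequest and Scaffold.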

Tau plaque particles = system: Tau plaque particles; design: species or system human
Method in brief: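 Synthetic Tau-74 and Tau-275 peptides (1 mg/mL PBS, 37° C, 2 h) aggregated; 30 μg aggregates incubated with 50% serum/plasma 1 h at 37° C, stained with Thioflavin S, and plaque particles sorted by flow cytometry. Bound proteins trypsin-digested and identified by MS/MS against human UniProt.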

Substance | Semi-quantitative analysis of proteins binding to different plaque particles: Abeta-42 [1] | Semi-quantitative analysis of proteins binding to different plaque particles: Chl Large [2] | Semi-quantitative analysis of proteins binding to different plaque particles: Chl small [3] | Semi-quantitative analysis of proteins binding to different plaque particles: Synuclein [4] | Semi-quantitative analysis of proteins binding to different plaque particles: Tau (Tau plaque particles)
Immunoglobulin lambda-like polypeptide 5 | 9 | 5 | 7 | 8 | 11
Myosin-13 | 17 | 0 | 0 | 0 | 0
Isoform 2 of Annexin A2 | 2 | 0 | 0 | 0 | 0
Hornerin | 2 | 0 | 0 | 0 | 1
Plasminogen | 7 | 11 | 9 | 7 | 13
Gelsolin | 2 | 8 | 9 | 6 | 9
Lumican | 0 | 4 | 3 | 0 | 0
Complement C4-A | 28 | 44 | 36 | 37 | 50
Filaggrin | 2 | 0 | 0 | 0 | 0
Complement C5 | 0 | 5 | 3 | 4 | 1
Apolipoprotein D | 0 | 2 | 2 | 1 | 3
Ig heavy chain V-III region TEI | 5 | 4 | 5 | 3 | 4
Vitamin K-dependent protein S | 0 | 0 | 1 | 0 | 0
Ig kappa chain V-III region VG | 0 | 1 | 0 | 1 | 0
Filaggrin-2 | 4 | 0 | 0 | 0 | 0
Ig kappa chain V-I region Wes | 2 | 2 | 1 | 2 | 2
Ig heavy chain V-III region TUR | 4 | 2 | 3 | 1 | 0
Cluster of Alpha-2-macroglobulin | 32 | 43 | 43 | 44 | 45
Cluster of Platelet factor 4 | 2 | 1 | 0 | 1 | 1
Alpha-1B-glycoprotein | 4 | 7 | 7 | 11 | 6
Complement component C6 | 0 | 1 | 1 | 3 | 1
Cluster of Hemoglobin subunit beta | 4 | 3 | 2 | 5 | 3
Complement component C8 beta chain | 0 | 1 | 2 | 0 | 2
